The values below are quoted from earlier work in patent US9974722B2, “Reduced-ethanol mouth rinse formulations” (Johnson & Johnson Consumer Inc., priority 2016, dated 2018).

With `CC1CCC(C(C)C)C(O)C1` (stereo not shown) [Menthol], the solubility in alcohol result is given as “only slightly soluble”.
